In patent US12172983B2, “EGFR inhibitors” (Blueprint Medicines Corporation, priority 2019, dated 2024) one finds IC50 data, which are given here for 17 molecules.

Experiment [1] concerns phosphorylation of EGFR (Tyr1068) in NCI-H1975 cell line that harbors the EGFR L858R T790M mutations. Nature of the experiment: NCI-H1975 pEGFR AlphaLISA assay. The experiment is classed as cell-based. To be noted: Homo sapiens, NCI-H1975, inhibition of phosphorylation of mutant EGFR in NCI-H1975 cells; 4-5 hours incubation; read-out: Ext pEGFR H1975. The method, boiled down: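 Phospho-EGFR Tyr1068 AlphaLISA readout: lysates taken from compound-treated H1975 cells (L858R T790M EGFR) after a 4-5 h exposure at 37 °C. Cells had adhered overnight beforehand. IC50 derived by plotting % pEGFR inhibition against log compound concentration.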
A general note: Alpha assays give light when donor and acceptor beads are brought close together.

For the next experiment, the target named is T1, EGFR (L858R T790M C797S) (Homo sapiens, UniProt P00533, C797S/L858R/T790M).
T1 construct: purchased SignalChem E10-122VG
In words: Biochemical EGFR inhibition assay (Caliper mobility shift), EGFR LRTMCS mutant. To be noted: inhibitory activity against EGFR LRTMCS mutant; apparent IC50; read-out: Ext Enz LRTMCS. The method, boiled down: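 Apparent IC50s were derived by plotting percent activity against the log of compound concentration. Activity was measured as phosphopeptide electrophoretically separated from substrate, after reactions at room temperature reached 10% to 20% phosphorylation and were halted with 35 mM EDTA.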

T1 sequence (P00533 25-1210 T790M/C797S/L858R): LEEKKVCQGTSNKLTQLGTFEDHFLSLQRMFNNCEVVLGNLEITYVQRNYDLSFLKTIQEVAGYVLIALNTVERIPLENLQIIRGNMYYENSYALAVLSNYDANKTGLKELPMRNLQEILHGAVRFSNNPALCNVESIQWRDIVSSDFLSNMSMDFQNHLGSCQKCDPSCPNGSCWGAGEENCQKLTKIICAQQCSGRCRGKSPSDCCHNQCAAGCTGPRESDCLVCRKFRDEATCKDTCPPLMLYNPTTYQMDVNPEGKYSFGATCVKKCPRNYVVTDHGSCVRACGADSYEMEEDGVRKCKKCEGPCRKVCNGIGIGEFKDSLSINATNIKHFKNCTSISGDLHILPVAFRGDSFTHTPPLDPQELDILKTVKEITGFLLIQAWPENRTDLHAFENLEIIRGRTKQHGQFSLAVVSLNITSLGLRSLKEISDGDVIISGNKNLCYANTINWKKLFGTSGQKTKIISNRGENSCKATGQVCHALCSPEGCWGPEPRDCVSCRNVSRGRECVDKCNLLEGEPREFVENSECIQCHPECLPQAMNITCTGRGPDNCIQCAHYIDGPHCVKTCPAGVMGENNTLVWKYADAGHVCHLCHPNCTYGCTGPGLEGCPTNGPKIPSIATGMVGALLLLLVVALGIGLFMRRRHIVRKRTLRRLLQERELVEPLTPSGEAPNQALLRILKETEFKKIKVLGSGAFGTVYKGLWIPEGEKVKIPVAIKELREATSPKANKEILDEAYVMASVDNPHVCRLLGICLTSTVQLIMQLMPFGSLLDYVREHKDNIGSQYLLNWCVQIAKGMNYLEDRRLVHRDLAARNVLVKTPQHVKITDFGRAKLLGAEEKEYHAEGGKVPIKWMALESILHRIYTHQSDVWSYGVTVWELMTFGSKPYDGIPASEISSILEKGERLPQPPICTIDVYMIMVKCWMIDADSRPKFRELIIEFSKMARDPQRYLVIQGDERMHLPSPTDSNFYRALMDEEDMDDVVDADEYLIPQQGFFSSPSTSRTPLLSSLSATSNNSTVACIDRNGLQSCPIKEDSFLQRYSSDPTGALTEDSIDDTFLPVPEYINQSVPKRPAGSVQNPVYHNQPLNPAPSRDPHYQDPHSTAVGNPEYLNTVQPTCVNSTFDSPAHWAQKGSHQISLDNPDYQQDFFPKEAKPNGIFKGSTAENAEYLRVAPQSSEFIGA

As for `CC(C)c1nnc(N2CC(CS(C)(=O)=O)C2)c2cnc(Nc3ccnc(N4CC[C@]5(CCO5)C(F)(F)C4)n3)cc12` (single isomer, unassigned) [Compound 209, (S)-N-(2-(5,5-difluoro-1-oxa-7-azaspiro[3.5]nonan-7-yl)pyrimidin-4-yl)-1-isopropyl-4-(3-((methylsulfonyl)methyl)azetidin-1-yl)pyrido[3,4-d]pyridazin-7-amine or (R)-N-(2-(5,5-difluoro-1-oxa-7-azaspiro[3.5]nonan-7-yl)pyrimidin-4-yl)-1-isopropyl-4-(3-((methylsulfonyl)methyl)azetidin-1-yl)pyrido[3,4-d]pyridazin-7-amine], the IC50 was 30.1 to 50 nM in experiment [1] and at most 15 nM on EGFR (L858R T790M C797S).
The corresponding values for `CO[C@@H]1CCN(c2nccc(Nc3cc4c(C(C)C)ncc(N5CC(CS(C)(=O)=O)C5)c4cn3)n2)C[C@]1(C)F` [Compound 144, N-{2-[(3S,4R)-3-fluoro-4-methoxy-3-methylpiperidin-1-yl]pyrimidin-4-yl}-8-[3-(methanesulfonylmethyl)azetidin-1-yl]-5-(propan-2-yl)-2,6-naphthyridin-3-amine] are at most 10 nM and at most 15 nM.
The corresponding values for `CC[C@]1(F)CN(c2nccc(Nc3cc4c(C(C)C)ccc(N5CC(CS(C)(=O)=O)C5)c4cn3)n2)CC[C@H]1O` (single isomer, unassigned) [Compound 115, (3S,4R)-3-ethyl-3-fluoro-1-[4-({8-[3-(methanesulfonylmethyl)azetidin-1-yl]-5-(propan-2-yl)isoquinolin-3-yl}amino)pyrimidin-2-yl]piperidin-4-ol or (3R,4S)-3-ethyl-3-fluoro-1-[4-({8-[3-(methanesulfonylmethyl)azetidin-1-yl]-5-(propan-2-yl)isoquinolin-3-yl}amino)pyrimidin-2-yl]piperidin-4-ol] are at most 10 nM and at most 15 nM.
The like results for `CC(C)c1ccc(N2C[C@H](CS(C)(=O)=O)[C@H]2C)c2cnc(Nc3ccnc(N4CC[C@](F)(CO)C4)n3)cc12` (single isomer, unassigned) [Compound 270, [(3R)-3-fluoro-1-[4-({8-[(2R,3S)-3-(methanesulfonylmethyl)-2-methylazetidin-1-yl]-5-(propan-2-yl)isoquinolin-3-yl}amino)pyrimidin-2-yl]pyrrolidin-3-yl]methanol or [(3S)-3-fluoro-1-[4-({8-[(2R,3S)-3-(methanesulfonylmethyl)-2-methylazetidin-1-yl]-5-(propan-2-yl)isoquinolin-3-yl}amino)pyrimidin-2-yl]pyrrolidin-3-yl]methanol] were, in that order, 10.1 to 20 nM and at most 15 nM.
Consider `CC(C)c1ccc(N2C[C@@H](CS(C)(=O)=O)[C@@H]2C)c2cnc(Nc3ccnc(N4CC[C@@H]5C[C@H]4CO5)n3)cc12` (single isomer, unassigned) [Compound 41, N-(2-((1S,5R)-6-oxa-2-azabicyclo[3.2.1]octan-2-yl)pyrimidin-4-yl)-5-isopropyl-8-((2S,3R)-2-methyl-3-((methylsulfonyl)methyl)azetidin-1-yl)isoquinolin-3-amine or N-(2-((1R,5S)-6-oxa-2-azabicyclo[3.2.1]octan-2-yl)pyrimidin-4-yl)-5-isopropyl-8-((2S,3R)-2-methyl-3-((methylsulfonyl)methyl)azetidin-1-yl)isoquinolin-3-amine], for which the IC50 in experiment [1] is at most 10 nM; on EGFR (L858R T790M C797S), at most 15 nM.
The like results for `CCS(=O)(=O)C[C@H]1CN(c2cnc(C(C)C)c3cc(Nc4ccnc(N5CC[C@](C)(O)[C@H](F)C5)n4)ncc23)[C@@H]1C` (single isomer, unassigned) [Compound 195] were, in that order, at most 10 nM and at most 15 nM.
The corresponding values for `CO[C@@H]1CCN(c2nccc(Nc3cc4c(C(C)C)ccc(N5C[C@H](CS(C)(=O)=O)[C@H]5C)c4cn3)n2)C[C@@H]1O` (single isomer, unassigned) [Compound 93, (3S,4R)-1-(4-(5-isopropyl-8-((2R,3S)-2-methyl-3-(methylsulfonylmethyl)azetidin-1-yl)isoquinolin-3-ylamino)pyrimidin-2-yl)-4-methoxypiperidin-3-ol or (3R,4S)-1-(4-(5-isopropyl-8-((2R,3S)-2-methyl-3-(methylsulfonylmethyl)azetidin-1-yl)isoquinolin-3-ylamino)pyrimidin-2-yl)-4-methoxypiperidin-3-ol] are at most 10 nM and at most 15 nM.
The corresponding values for `CO[C@@H]1CCN(c2nccc(Nc3cc4c(C(C)C)cnc(N5CC(CS(C)(=O)=O)C5)c4cn3)n2)C[C@@H]1F` [Compound 72, N-{2-[(3S,4R)-3-fluoro-4-methoxypiperidin-1-yl]pyrimidin-4-yl}-8-[3-(methanesulfonylmethyl)azetidin-1-yl]-5-(propan-2-yl)-2,7-naphthyridin-3-amine] are at most 10 nM and at most 15 nM.
Take `CC(C)c1ccc(N2C[C@H](CS(C)(=O)=O)[C@H]2C)c2cnc(Nc3ccnc(N4CC[C@H](OCCO)[C@H](F)C4)n3)cc12` [Compound 228, 2-((3R,4S)-3-fluoro-1-(4-(5-isopropyl-8-((2R,3S)-2-methyl-3-(methylsulfonylmethyl)azetidin-1-yl)isoquinolin-3-ylamino)pyrimidin-2-yl)piperidin-4-yloxy)ethanol]: the IC50 in experiment [1] is at most 10 nM; on EGFR (L858R T790M C797S), at most 15 nM.
The like results for `CO[C@@H]1[C@H](O)CN(c2nccc(Nc3cc4c(C(C)C)ccc(N5CC(CS(C)(=O)=O)C5)c4cn3)n2)C[C@@H]1F` (single isomer, unassigned) [Compound 148, (3R,4R,5S)-5-fluoro-1-[4-({8-[3-(methanesulfonylmethyl)azetidin-1-yl]-5-(propan-2-yl)isoquinolin-3-yl}amino)pyrimidin-2-yl]-4-methoxypiperidin-3-ol or (3S,4S,5R)-5-fluoro-1-[4-({8-[3-(methanesulfonylmethyl)azetidin-1-yl]-5-(propan-2-yl)isoquinolin-3-yl}amino)pyrimidin-2-yl]-4-methoxypiperidin-3-ol] were, in that order, at most 10 nM and at most 15 nM.
The like results for `COC1(CCN)CCN(c2nccc(Nc3cc4c(C(C)C)ccc(N5C[C@H](CS(C)(=O)=O)[C@H]5C)c4cn3)n2)CC1` [Compound 221, N-{2-[4-(2-aminoethyl)-4-methoxypiperidin-1-yl]pyrimidin-4-yl}-8-[(2R,3S)-3-(methanesulfonylmethyl)-2-methylazetidin-1-yl]-5-(propan-2-yl)isoquinolin-3-amine] were, in that order, 30.1 to 50 nM and at most 15 nM.
For the molecule `CC(C)c1ccc(N2CC(CS(=O)(=O)C3CNC3)C2)c2cnc(Nc3ccnc(N4CC[C@@H](O)[C@@](C)(F)C4)n3)cc12` (single isomer, unassigned) [Compound 223], the IC50 in experiment [1] was in the range of 30.1 to 50 nM; at EGFR (L858R T790M C797S) it was 20.1 to 30 nM.
The like results for `CO[C@H]1CCN(c2nccc(Nc3cc4c(C(C)C)ccc(N5C[C@H](CS(C)(=O)=O)[C@H]5C)c4cn3)n2)C[C@@H]1CO` (single isomer, unassigned) [Compound 172, [(3R,4S)-1-[4-({8-[(2R,3S)-3-(methanesulfonylmethyl)-2-methylazetidin-1-yl]-5-(propan-2-yl)isoquinolin-3-yl}amino)pyrimidin-2-yl]-4-methoxypiperidin-3-yl]methanol or [(3S,4R)-1-[4-({8-[(2R,3S)-3-(methanesulfonylmethyl)-2-methylazetidin-1-yl]-5-(propan-2-yl)isoquinolin-3-yl}amino)pyrimidin-2-yl]-4-methoxypiperidin-3-yl]methanol] were, in that order, 20.1 to 30 nM and at most 15 nM.
The corresponding values for `CC(C)c1ccc(N2CC(CS(=O)(=O)C3CC3)C2)c2cnc(Nc3ccnc(N4CC[C@@H](O)[C@@](C)(F)C4)n3)cc12` [Compound 170, (3S,4R)-1-{4-[(8-{3-[(cyclopropanesulfonyl)methyl]azetidin-1-yl}-5-(propan-2-yl)isoquinolin-3-yl)amino]pyrimidin-2-yl}-3-fluoro-3-methylpiperidin-4-ol] are at most 10 nM and at most 15 nM.
The corresponding values for `CC(C)c1ccc(N2CC(CS(C)(=O)=O)C2)c2cnc(Nc3ccnc(N4CCCC(O)CC4)n3)cc12` (racemic) [Compound 21, (rac)-1-[4-({8-[3-(methanesulfonylmethyl)azetidin-1-yl]-5-(propan-2-yl)isoquinolin-3-yl}amino)pyrimidin-2-yl]azepan-4-ol] are 30.1 to 50 nM and 20.1 to 30 nM.
Consider `CCS(=O)(=O)CC1CN(c2ccc(C(C)C)c3cc(Nc4ccnc(N5CC[C@H](OC)[C@H](F)C5)n4)ncc23)C1` [Compound 262, 8-{3-[(ethanesulfonyl)methyl]azetidin-1-yl}-N-{2-[(3R,4S)-3-fluoro-4-methoxypiperidin-1-yl]pyrimidin-4-yl}-5-(propan-2-yl)isoquinolin-3-amine], for which the IC50 in experiment [1] is at most 10 nM; on EGFR (L858R T790M C797S), at most 15 nM.
The corresponding values for `CC(C)c1ncc(N2C[C@H](CS(C)(=O)=O)[C@H]2C)c2cnc(Nc3ccnc(N4CC[C@@H](OCC(C)(C)O)[C@@H](F)C4)n3)cc12` [Compound 258, 1-{[(3S,4R)-3-fluoro-1-[4-({8-[(2R,3S)-3-(methanesulfonylmethyl)-2-methylazetidin-1-yl]-5-(propan-2-yl)-2,6-naphthyridin-3-yl}amino)pyrimidin-2-yl]piperidin-4-yl]oxy}-2-methylpropan-2-ol] are at most 10 nM and at most 15 nM.
